For experiment [1], the system named is Collagen type I alpha 1 (Col1a1). The experiment is described as follows: Collagen (Col1a1) expression in Human Oral Fibroblasts, QPCR. The following applies: HOF treated with conditioned media from Oral Keratinocytes containing LPS, CSA, Phenytoin or Folic acid (10 μg/ml), 24 hours; p<0.05. It is filed as cell-based. As for the experimental part: (§1) Cell Culture. Normal human oral keratinocytes (NOKSI) and fibroblast (HOF) cells were maintained in Dulbecco […] Eagle's medium (Sigma-Aldrich, St. Louis, MO, USA) supplemented with 10% fetal bovine serum (Atlas Bio-logicals, Fort Collins, CO, USA) and 100 units/mL penicillin and 100 μg/mL streptomycin (LifeTechnologies, Carlsbad, CA, USA). Cells were grown in incubator at 37° C. in a humidified chamber with 5% CO2.
Human Oral Fibroblasts (HOF) cells were seeded in 60 mm plates with a density of 2.5×10^4/cm^2 and treated with condition (CM) media collected from Oral Keratinocytes containing LPS (10 μg/ml), CSA (10 μg/ml), Phenytoin (10 μg/ml), or Folic acid (10 μg/ml) and incubated for 24 hours. The Collagen type I alpha 1 (Col1a1) gene expression was determined by QPCR. HOF cells were treated with rTGF-β, SB-431542 (SB), rTNF-α, or TNF-α inhibitor (TNF-α inh). Quantitative real-time PCR results showing the expression of Col1a1 in HOF cells after the treatment. (p<0.05).

The test system of the next experiment is phospho-p65. The experiment is described as follows: Mice study #2: phospho-p65 immunoblotting of gingival samples. Type of experiment: in vivo, C57BL/6 mice. The following applies: pattern as for Myd88 (disease higher than control and treatment). As for the experimental part: Western blot analysis. Cells were seeded in 60 mm plates with a density of 5×10^5 cells per plate and washed briefly with Dulbecco's phosphate-buffered saline (Gibco, Waltham, MA, USA). Whole cell lysates were prepared using RIPA lysis buffer containing protease inhibitor cocktail (Sigma-Aldrich). Total protein concentration was determined using the BCA reagent (Pierce, Waltham, MA, USA). 20 μg of total protein were resolved on sodium dodecyl sulfate-polyacrylamide gel electrophoresis and transferred to polyvinylidenedifluoride membrane and immunoblotted. The blots were incubated for 1 h in 1% bovine serum albumin (BSA) (Sigma-Aldrich) to block the non-specific bindings followed by over-night incubation in primary antibodies (MyD88 and pP65 from Cell Signaling Technology, and human LITAF ThermoFisher Sigma) at 4° C. on shaker. Next day, blots were washed for three times (10 min each) in Tris-buffered saline containing 1% Tween20 (TBST) followed by incubation with secondary antibody (Goat anti-rabbit IgG HRP) with 1:10,000 dilution for 1 h. […] The band intensities were quantified using software ImageJ (NIH, USA) and relative protein levels were normalized by β-actin (Cell Signaling). […] The band intensities were measured by the software ImageJ (NIH, USA), and relative protein levels were normalized by β-actin.

The subject of the next experiment is LITAF. Put plainly: Western blot of LITAF in oral keratinocytes. Type of experiment: cell-based, human. The method, then: as §1
(§2) Drugs treatment in cell culture. The cells were treated alone or with different combination of lipopolysaccharide, cyclosporine, phenytoin, and folic acid. All of them were purchased from Sigma-Aldrich (St. Louis, MO, USA). Each of them were used from 0 μg/ml to 40 μg/ml and the optimum concentration were found 10 μg/ml.
Western blot analysis. Cells were seeded in 60 mm plates with a density of 5×10^5 cells per plate and washed briefly with Dulbecco's phosphate-buffered saline (Gibco, Waltham, MA, USA). Whole cell lysates were prepared using RIPA lysis buffer containing protease inhibitor cocktail (Sigma-Aldrich). Total protein concentration was determined using the BCA reagent (Pierce, Waltham, MA, USA). 20 μg of total protein were resolved on sodium dodecyl sulfate-polyacrylamide gel electrophoresis and transferred to polyvinylidenedifluoride membrane and immunoblotted. The blots were incubated for 1 h in 1% bovine serum albumin (BSA) (Sigma-Aldrich) to block the non-specific bindings followed by over-night incubation in primary antibodies (MyD88 and pP65 from Cell Signaling Technology, and human LITAF ThermoFisher Sigma) at 4° C. on shaker. Next day, blots were washed for three times (10 min each) in Tris-buffered saline containing 1% Tween20 (TBST) followed by incubation with secondary antibody (Goat anti-rabbit IgG HRP) with 1:10,000 dilution for 1 h. Following washes, bands were visualized using gel documentation Imaging Systems (BioRad). The band intensities were quantified using software ImageJ (NIH, USA) and relative protein levels were normalized by β-actin (Cell Signaling). To perform the western blot of animal tissue samples, the gingival tissues were collected from both BABLB/c and C57BL/6 mice studies. The soft tissues were separated from the mandibular bone and then crunched. The Bradford assay was performed to measure the protein concentration of each sample. After normalization, 20 μg of whole tissue protein lysate were proceeded for western blot analysis.

The test system of another experiment is NF-κB (p-P65). The experiment is described as follows: Western blot of phospho-p65 (NF-κB) in oral keratinocytes. It is filed as cell-based, human. The method, then: as §1, §2
Western blot analysis. Cells were seeded in 60 mm plates with a density of 5×10^5 cells per plate and washed briefly with Dulbecco's phosphate-buffered saline (Gibco, Waltham, MA, USA). Whole cell lysates were prepared using RIPA lysis buffer containing protease inhibitor cocktail (Sigma-Aldrich). Total protein concentration was determined using the BCA reagent (Pierce, Waltham, MA, USA). 20 μg of total protein were resolved on sodium dodecyl sulfate-polyacrylamide gel electrophoresis and transferred to polyvinylidenedifluoride membrane and immunoblotted. The blots were incubated for 1 h in 1% bovine serum albumin (BSA) (Sigma-Aldrich) to block the non-specific bindings followed by over-night incubation in primary antibodies (MyD88 and pP65 from Cell Signaling Technology, and human LITAF ThermoFisher Sigma) at 4° C. on shaker. Next day, blots were washed for three times (10 min each) in Tris-buffered saline containing 1% Tween20 (TBST) followed by incubation with secondary antibody (Goat anti-rabbit IgG HRP) with 1:10,000 dilution for 1 h. Following washes, bands were visualized using gel documentation Imaging Systems (BioRad). The band intensities were quantified using software ImageJ (NIH, USA) and relative protein levels were normalized by β-actin (Cell Signaling). […]
A general note: A western blot detects proteins with antibodies after separation by electrophoresis.

Setting [2] is: LPS, CSA, FA each 10 μg/ml, 24 hours.
[3] abbreviates: LPS, Phe, FA each 10 μg/ml, 24 hours.
[4] abbreviates: normal oral keratinocyte cells, FIG. 35.

Consider one molecule from patent publication US20260000496A1, “MATERIALS AND METHODS FOR DRUG-INDUCED GINGIVAL OVERGROWTH” (Optimed Technology, Inc., priority 2019, published 2026).

On to `Nc1nc2ncc(CNc3ccc(C(=O)N[C@@H](CCC(=O)O)C(=O)O)cc3)nc2c(=O)[nH]1` [folic acid], for which, in experiment [1], the “Collagen type I alpha 1 (Col1a1) gene expression” value is given as “reduces the collagen expression”. For the same molecule, in the experiment on phospho-p65, the “phospho p65 expression, pattern across groups” value is recorded as “a similar pattern”. In addition, the LITAF protein level entry in the experiment with LITAF (setting [2]) is “inhibits CSA-induced expression”. Also, the “amount of LITAF protein” value with LITAF (setting [3]) was “LITAF expression is reduced”; in the experiment on LITAF (different concentrations of folic acid (2.5-40 μg/ml), 24 hours) it was “dose dependent effect”. Further, in the experiment on LITAF (setting [4]), the “LITAF by western blot” value is given as “downregulation”. The p-P65 protein level result in the experiment on NF-κB (p-P65) (setting [2]) is “inhibits CSA-induced expression”. The “amount of phospho-p65 (p-P65) protein” value in the experiment with NF-κB (p-P65) (setting [3]) was “reduces phosphorylation of NF-κB (p-P65)”. Moreover, the “NF-κB by western blot” value with NF-κB (p-P65) (setting [4]) is reported as “downregulation”.
